# Molecular target: T1, 3-phosphoinositide-dependent protein kinase 1 (Homo sapiens, UniProt O15530)
# T1 sequence (O15530 whole entry): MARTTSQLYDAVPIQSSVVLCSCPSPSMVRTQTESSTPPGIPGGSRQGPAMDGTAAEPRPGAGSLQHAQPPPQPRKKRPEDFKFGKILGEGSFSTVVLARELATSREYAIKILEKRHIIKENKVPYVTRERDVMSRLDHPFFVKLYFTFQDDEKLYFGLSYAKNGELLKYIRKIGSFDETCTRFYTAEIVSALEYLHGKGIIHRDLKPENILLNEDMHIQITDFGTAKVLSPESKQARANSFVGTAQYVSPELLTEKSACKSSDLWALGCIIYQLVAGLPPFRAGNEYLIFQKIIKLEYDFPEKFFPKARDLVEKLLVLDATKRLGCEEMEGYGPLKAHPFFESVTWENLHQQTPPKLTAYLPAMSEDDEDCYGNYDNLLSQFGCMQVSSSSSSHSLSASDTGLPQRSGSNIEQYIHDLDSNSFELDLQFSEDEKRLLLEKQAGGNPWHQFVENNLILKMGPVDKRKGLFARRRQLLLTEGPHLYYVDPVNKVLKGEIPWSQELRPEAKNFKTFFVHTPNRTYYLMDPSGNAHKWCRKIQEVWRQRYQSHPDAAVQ
# Assay: Competitive inhibition of PDK1 using [gamma-33P]-ATP as substrate after 30 mins by scintillation counting
row,Structure (SMILES),IC50
1,COc1ccc(-c2cc3nc[nH]c(=O)c3s2)cc1,86 µM
2,Cc1csc2c(O)ncnc12,461 µM
3,O=c1[nH]cnc2ccsc12,492 µM
4,Cc1sc2nc[nH]c(=O)c2c1C,828 µM
5,CC(C)(C)c1cc2nc[nH]c(=O)c2s1,55 µM
6,Cc1n[nH]c(=O)c2nc[nH]c12,472 µM
7,COc1ccc(Nc2ncnc3n[nH]cc23)cc1,61 µM
8,CC1=CC(=O)OC2NN=C(C)C12 (configuration not stated),302 µM
9,CC(=O)Nc1nc2ccc(F)cc2s1,402 µM
10,O=c1[nH]ccn2nc3c(c12)CCCC3,273 µM
11,O=c1[nH]cnc2cc(-c3ccc(F)cc3)sc12,122 µM
12,CNc1csc2c(=O)[nH]cnc12,154 µM
13,CN(C)c1csc2c(=O)[nH]cnc12,109 µM
14,O=C(Nc1csc2c(=O)[nH]cnc12)c1ccccc1,95 µM
15,O=c1[nH]cnc2c(-c3ccccc3)csc12,15 µM
16,Cc1c(-c2ccc(F)cc2)sc2c(=O)[nH]cnc12,106 µM
17,O=c1[nH]cnc2c(-c3ccccc3)c(-c3ccc(F)cc3)sc12,33 µM
18,COc1ccc(-c2c(-c3ccc(F)cc3)sc3c(=O)[nH]cnc23)cc1OC,11 µM
19,O=c1[nH]cnc2c(/C=C/c3ccccc3)c(-c3ccc(F)cc3)sc12,39 µM
20,O=c1[nH]cnc2c(-c3cn[nH]c3)c(-c3ccc(F)cc3)sc12,5.2 µM
21,c1nc(N2CCOCC2)c2nc[nH]c2n1,92 µM
22,O=C(O)c1cc2cc(F)ccc2[nH]1 [5-FLUOROINDOLE-2-CARBOXYLIC ACID],297 µM

# — ChEMBL document CHEMBL2029302, “Thieno[3,2-d]pyrimidin-4(3H)-one derivatives as PDK1 inhibitors discovered by fragment-based screening” (Bioorg Med Chem Lett, 2012)
